Assay results: article PMC12191924, “A new naphthalene-based fluorogenic substrate for cytochrome P450 4A11” (Biochemical Journal, 2025)

Target: T1, pooled human liver microsome (HLM) preparations (Homo sapiens, UniProt Q02928)
T1 sequence (Q02928 5-519): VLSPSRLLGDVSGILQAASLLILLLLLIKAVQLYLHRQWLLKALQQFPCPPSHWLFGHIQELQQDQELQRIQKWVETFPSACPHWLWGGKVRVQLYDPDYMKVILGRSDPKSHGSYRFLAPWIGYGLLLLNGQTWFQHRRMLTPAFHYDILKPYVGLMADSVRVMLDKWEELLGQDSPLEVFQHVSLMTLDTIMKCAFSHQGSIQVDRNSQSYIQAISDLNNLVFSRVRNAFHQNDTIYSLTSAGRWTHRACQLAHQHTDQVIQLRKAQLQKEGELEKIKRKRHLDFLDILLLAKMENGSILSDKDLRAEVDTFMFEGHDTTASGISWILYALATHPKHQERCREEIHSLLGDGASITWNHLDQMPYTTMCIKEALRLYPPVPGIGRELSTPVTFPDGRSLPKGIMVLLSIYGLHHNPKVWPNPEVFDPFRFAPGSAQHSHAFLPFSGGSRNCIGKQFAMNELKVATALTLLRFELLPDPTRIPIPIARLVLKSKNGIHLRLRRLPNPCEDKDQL
Assay: Inhibition of MONACRA demethylation in pooled HLM preparations
Assay type: biochemical
Conditions: all studied HLM samples; from inhibitory analysis with epalrestat
From the text: To probe the role of CYP4A11 and CYP1A2 in MONACRA metabolism by HLM, we employed inhibitory analysis with the use of epalrestat as a specific inhibitor of CYP4A11 [22] and fluvoxamine as a CYP1A2 inhibitor [37]. We explored the effect of the inhibitors on the activity of recombinant CYP1A2 and CYP4A11, as well as the activity of six different preparations of HLM (preparation X347 was not available at the time of the study).
Figure 12: Effect of epalrestat (A) and fluvoxamine (B) on 3-(6-methoxynaphthalen-2-yl)acrylic acid (MONACRA) demethylation by recombinant CYP1A2 (black) and CYP4A11 (red) and three pooled human liver microsome (HLM) preparations: X263 (green), DNJ (blue), and WGP (brown). Solid lines represent the approximation of the datasets by eqn 1 (in the instances of pure inhibition) or a combination of two hyperbolic equations (in the cases of activation or combined inhibition and activation). All experiments were carried out at 150 µM MONACRA concentration. The datasets shown in the graphs represent the averages of the results of four (fluvoxamine) or two (epalrestat) individual experiments.
This study used preparations of pooled HLMs from 50, 150, or 200 donors (mixed gender). The preparations CDN, DNJ, and WGP were INVITROCYP 150-Donor Human Liver Microsomes obtained from BioIVT Corporation (Westbury, NY). Lot EGW is INVITROCYP M-Class 50-Donor HLM procured from the same company. Lots 1,910,096 and 1,210,347 were XTreme 200 Mixed Gender HLM (200 donors) purchased from XenoTech LLC (Kansas City, KS), currently a part of BioIVT. Lot 2,110,263 corresponds to mixed gender HLM from 50 donors from the same company. These lots are referred to herein as X096, X347, and X263, respectively. The supplier of the HLM preparations used in our studies, BioIVT Corporation, has declared to adhere to the regulations of the Department of Health and Human Services for the protection of human subjects (45 CFR §46.116 and §46.117) and Good Clinical Practice, (ICH E6) in obtaining the samples of human tissues used for producing the preparations of human subcellular fractions available from these companies.
Inhibition of MONACRA metabolism by epalrestat and fluvoxamine was studied using the high-throughput assay described above. The substrate concentration was kept constant at 150 µM. Each column of the well plate comprised eight wells with different concentrations of inhibitor complemented with two wells with no inhibitor added (100% activity samples) and two wells with no inhibitor and no NADPH added (‘blank’ samples). […] The fractional inhibition at each inhibitor concentration was determined from the ratio of the reaction rate in the presence of an inhibitor to the rate observed at no inhibitor added. The resulting dependence of the fractional inhibition on the inhibitor concentration was fitted to a four-parameter logistic equation (Hill equation):
(1) FI=v0−vi/v0=Amax[I]^N/IC50+[I]^N
In this equation, F I and vi are the fractional inhibition and the reaction velocity observed at inhibitor concentration [I], v0 is the reaction rate at no inhibitor added, and A max is the maximal amplitude of inhibition. IC 50 is the concentration of inhibitor at which the inhibition reaches 50% of its maximal amplitude (A max), and N is the Hill coefficient.

Q: With `COc1ccc2cc(C=CC(=O)O)ccc2c1` [MONACRA, 3-(6-methoxynaphthalen-2-yl)acrylic acid] as the molecule, how does the “share of MONACRA demethylation for which CYP4A11 is responsible” value read?
A: > 93%
